Read-outs that look alike come from different tables or passages of the source.
Tests used:
Format in all cases: cell-based
[1] = target: T1, KRAS G12V-cRAF (Homo sapiens, UniProt P01116, G12V); assay: Cellular KRAS G12V-cRAF Binding Inhibition Assay (NanoBRET, AD293 stable cells); conditions: 3 h incubation, read-out: NanoBRET KRAS G12V
T1 construct: expressed in transfected cells
Method in brief: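 Live AD293 stable cells, NanoLuc donor with HaloTag NanoBRET 618 ligand acceptor added overnight. Inhibition percent from luminescence relative to max signal and medium blank; IC50 from curve fitting.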

[2] = target: T2, KRAS G12D-cRAF (Homo sapiens, UniProt P01116, G12D); assay: Cellular KRAS G12D-cRAF Binding Inhibition Assay (NanoBRET, AD293 stable cells); conditions: 3 h incubation, read-out: NanoBRET KRAS G12D
T2 construct: expressed in transfected cells
T2 sequence (P01116 1-188 isoform P01116-2 G12D): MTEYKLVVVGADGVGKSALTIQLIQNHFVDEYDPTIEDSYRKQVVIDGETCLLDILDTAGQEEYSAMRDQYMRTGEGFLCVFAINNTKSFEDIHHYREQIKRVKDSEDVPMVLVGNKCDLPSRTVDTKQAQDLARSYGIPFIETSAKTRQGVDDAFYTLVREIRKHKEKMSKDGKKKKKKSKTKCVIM
Method in brief: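 AD293 cells stably expressing KRAS G12D-NanoLuc and cRAF RBD-HaloTag were seeded at 1×10^4 cells/well with NanoBRET 618 ligand overnight. BRET signal was converted to % inhibition of binding relative to max and blank wells, and IC50 came from curve fitting.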

[3] = tested on: KRAS-G12V mutant tumor cells SW620; assay: Cell Proliferation Inhibition Assay (SW620), Cell-titer GLO, 96 h; conditions: SW620 cells, 96 h incubation, Cell-titer GLO, read-out: SW620(G12V)
Method in brief: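 SW620 cells (1×10^3/well, low-attachment) were exposed to compound from 10000 to 0.03 nM (0.5% DMSO) for 96 h at 37°C. Viability was read by Cell-titer GLO luminescence. Inhibition was calculated relative to DMSO and blank wells, and IC50 obtained by curve fitting.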

[4] = tested on: KRAS-G12D mutant tumor cells AGS; assay: Cell Proliferation Inhibition Assay (AGS), Cell-titer GLO, 96 h; conditions: AGS cells, 96 h incubation, Cell-titer GLO, read-out: AGS(G12D)
Method in brief: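 AGS cells (KRAS-G12D) grown in low-attachment plates were exposed to compound for 96 h at 37°C. Viability was read by CellTiter-Glo luminescence and converted to % inhibition against max and blank wells. IC50 came from curve fitting.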

T1 sequence (P01116 1-188 isoform P01116-2 G12V): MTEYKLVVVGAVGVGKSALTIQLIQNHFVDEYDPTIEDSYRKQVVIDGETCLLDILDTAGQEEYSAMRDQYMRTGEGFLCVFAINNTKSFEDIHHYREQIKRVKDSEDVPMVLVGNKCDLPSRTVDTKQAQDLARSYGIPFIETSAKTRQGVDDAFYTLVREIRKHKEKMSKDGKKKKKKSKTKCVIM

SMILES | IC50 [1] [nM] | IC50 [2] [nM] | IC50 ([3]; Homo sapiens, SW-620, 96 h) [nM] | IC50 ([4]; Homo sapiens, AGS, 96 h) [nM] | IC50 [3] [nM] | IC50 [4] [nM]
CCN1CCN(c2cnc3c(c2)-c2c4c5cc(ccc5n2CCCOC3C)-c2csc(n2)CC(NC(=O)C23COC(C)(C2)C3)C(=O)N2CCCC(N2)C(=O)OCC(C)(C)C4)CC1 [Example 124, (1S,4r)-N-((1^5S,6^3S,4S,Z)-1^2-(4-ethylpiperazin-1-yl)-1^5,10,10-trimethyl-5,7-dioxo-1^8,1^9,6^1,6^2,6^3, 6^4,6^5,6^6-octahydro-1^5H,1^7H-8-oxa-1(13,15)-pyrido[3',2':7,8][1,5]oxazonino[5,6-a]indola-2(4,2)-thiazola-6(1,3)-pyridazinacycloundecaphane-4-yl)-1-methyl-2-oxabicyclo[2.1.1]hexane-4-carbox amide] | 18 | 8.38 | 1.45 | 4.67 | – | –
CC1OCCCn2c(c3c4cc(ccc42)-c2csc(n2)CC(NC(=O)C2CC2C(F)F)C(=O)N2CCCC(N2)C(=O)OCC(C)(C)C3)-c2cc(N3CCC4(CC3)COC4)cnc21 [Example 125, (1S,2S)-2-(difluoromethyl)-N-((1^5S,6^3S,4SZ)-1^5,10,10-trimethyl-5,7-dioxo-1^2-(2-oxa-7-azaspiro [3.5]nonan-7-yl)-1^8,1^9,6^1,6^2,6^3,6^4,6^5,6^6-octahydro-1^5H,1^7H-8-oxa-1(13,15)-pyrido[3',2':7,8][1,5]oxazonino[5,6-a]indola-2(4,2)-thiazola-6(1,3)-pyridazinacycloundecaphane-4-yl)cyclopropane-1-carboxamide] | 14.7 | 4.55 | 0.6 | 2.8 | – | –
CC1CN(c2cnc3c(c2)-c2c4c5cc(ccc5n2CCCOC3C)-c2csc(n2)CC(NC(=O)C2CC2C(F)F)C(=O)N2CCCC(N2)C(=O)OCC(C)(C)C4)CC(C)O1 [Example 128, (1S,2S)-2-(difluoromethyl)-N-((1^5S,6^3S,4S,Z)-1^2-((2S,6R)-2,6-dimethylmorpholino)-1^5,0,10-trimethyl-5,7-dioxo-1^8,1^9,6^1,6^2,6^3,6^4,6^5,6^6-octahydro-1^5H,1^7H-8-oxa-1(13,15)-pyrido[3',2':7,8][1,5]oxazonino[5,6-a]indola-2(4,2)-thiazola-6(1,3)-pyridazinacycloundecaphane-4-yl)cyclopropane-1-carboxamide] | 11.4 | 2.5 | 0.29 | 1.28 | – | –
CC1OCCCn2c(c3c4cc(ccc42)-c2csc(n2)CC(NC(=O)C2CC2C(F)F)C(=O)N2CCCC(N2)C(=O)OCC(C)(C)C3)-c2cc(N3CCS(=O)(=O)CC3)cnc21 [Example 133, (1S,2S)-2-(difluoromethyl)-N-((1^5S,6^3S,4S,Z)-1^2-(1,1-dioxidothiomorpholino)-1^5,10,10-trimethy 1-5,7-dioxo-1^8,1^9,6^1,6,^26^3,6^4,6^5,6^6-octahydro-1^5H,1^7H-8-oxa-1(13,15)-pyrido[3',2':7,8][1,5]oxazonino[5,6-alindola-2(4,2)-thiazola-6(1,3)-pyridazinacycloundecaphane-4-yl)cyclopropane-1-carboxamide] | 40.9 | 9.2 | 0.79 | 1.25 | – | –
CC1OCCCn2c(c3c4cc(ccc42)-c2csc(n2)CC(NC(=O)C2CC2C(F)F)C(=O)N2CCCC(N2)C(=O)OCC(C)(C)C3)-c2cc(N3CC[S+]([O-])CC3)cnc21 [Example 134, (1S,2S)-2-(difluoromethyl)-N-(((1^5S,6^3S,4S,Z)-1^5,10,10-trimethyl-1^2-(1-oxidothiomorpholino)-5,7-dioxo-1^8,1^9,6^1,6^2,6^3,6^4,6^5,6^6-octahydro-1^5H,1^7H-8-oxa-1(13,15)-pyrido[3',2':7,8][1,5]oxazonino[5,6-alindola-2(4,2)-thiazola-6(1,3)-pyridazinacycloundecaphane-4-yl)cyclopropane-1-carboxamide] | 59 | 13.7 | 1.44 | 1.7 | – | –
CC1OCCCn2c(c3c4cc(ccc42)-c2csc(n2)CC(NC(=O)C2CC2C(F)F)C(=O)N2CCCC(N2)C(=O)OCC(C)(C)C3)-c2cc(N3CC(C)N(C)C(C)C3)cnc21 [Example 140, (1S,2S)-2-(difluoromethyl)-N-((1^5S,6^3S,4S,Z)-1^5,10,10-trimethyl-5,7-dioxo-1^2-((3S,5R)-3,4,5-trimethylpiperazin-1-yl)-1^8,1^9,6^1,6^2,6^3,6^4,6^5,6^6-octahydro-1^5H,1^7H-8-oxa-1(13,15)-pyrido[3',2':7,8] [1,5]oxazonino[5,6-a]indola-2(4,2)-thiazola-6(1,3)-pyridazinacycloundecaphane-4-yl)cyclopropane-1-carboxamide] | 9.3 | 1.8 | 0.14 | 0.38 | – | –

Other lines, results leading:

IC50 [1] [nM] | IC50 [2] [nM] | IC50 ([3]; Homo sapiens, SW-620, 96 h) [nM] | IC50 ([4]; Homo sapiens, AGS, 96 h) [nM] | IC50 [3] [nM] | IC50 [4] [nM] | SMILES
16.3 | 3.4 | 0.85 | 1.8 | – | – | CC1CN(c2cnc3c(c2)-c2c4c5cc(ccc5n2CCCOC3C)-c2csc(n2)CC(NC(=O)C2CC2C(F)F)C(=O)N2CCCC(N2)C(=O)OCC(C)(C)C4)CCO1 [Example 130, (1S,2S)-2-(difluoromethyl)-N-((1^5S,6^3S,4S,Z)-1^5,10,10-trimethyl-1^2-((R)-2-methylmorpholino)-5,7-dioxo-1^8,1^9,6^1,6^2,6^3,6^4,6^5,6^6-octahydro-1^5H,^7H-8-oxa-1(13,15)-pyrido[3',2':7,8][1,5]oxazonino[5,6-a]indola-2(4,2)-thiazola-6(1,3)-pyridazinacycloundecaphane-4-yl)cyclopropane-1-carbox amide]
11 | 2.57 | – | – | 0.51 | 1.31 | CC1CN(c2cnc3c(c2)-c2c4c5cc(ccc5n2CCCOC3C)-c2csc(n2)CC(NC(=O)C2CC2C(F)F)C(=O)N2CCCC(N2)C(=O)OCC(C)(C)C4)CC(C)O1 [Example 131, (1S,2S)-2-(difluoromethyl)-N-((1^5S,6^3S,4S,Z)-1^2-((2S,6S)-2,6-dimethylmorpholino)-1^5,10,10-trimethyl-5,7-dioxo-1^8,1^9,6^1,6^2,6^3,6^4,6^5,6^6-octahydro-1^5H,1^7H-8-oxa-1(13,15)-pyrido[3',2':7,8][1,5]oxazonino[5,6-a]indola-2(4,2)-thiazola-6(1,3)-pyridazinacycloundecaphane-4-yl)cyclopropane-1-carboxamide]
10.6 | 2.39 | – | – | 0.7 | 2.2 | COC1CCN(c2cnc3c(c2)-c2c4c5cc(ccc5n2CCCOC3C)-c2csc(n2)CC(NC(=O)C2CC2C(F)F)C(=O)N2CCCC(N2)C(=O)OCC(C)(C)C4)C1 [Example 135, (1S,2S)-2-(difluoromethyl)-N-((1^5S,6^3S,4S,Z)-1^2-((R)-3-methoxypyrrolidin-1-yl)-1^5,10,10-trimethyl-5,7-dioxo-1^8, 1^9,6^1 ,6^2,6^3,6^4,6^5 ,6^6-octahydro-1^5H,1^7H-8-oxa-1(13,15)-pyrido[3',2':7,8][1,5]oxazonino[5,6-a]indola-2(4,2)-thiazola-6(1,3)-pyridazinacycloundecaphane-4-yl)cyclopropane-1-car boxamide]
19.6 | 4.59 | – | – | 1.5 | 5.6 | COC1CCN(c2cnc3c(c2)-c2c4c5cc(ccc5n2CCCOC3C)-c2csc(n2)CC(NC(=O)C2CC2C(F)F)C(=O)N2CCCC(N2)C(=O)OCC(C)(C)C4)C1 [Example 136, (1S,2S)-2-(difluoromethyl)-N-((1^5S,6^3S,4S,Z)-1^2-((S)-3-methoxypyrrolidin-1-yl)-1^5,10,10-trimethyl-5,7-dioxo-1^8,1^9,6^1,6^2,6^3,6^4,6^5,6^6-octahydro-1^5H,1^7H-8-oxa-1(13,15)-pyrido[3',2':7,8][1,5]oxazonino[5,6-alindola-2(4,2)-thiazola-6(1,3)-pyridazinacycloundecaphane-4-yl)cyclopropane-1-carboxamide]
14.7 | 3.2 | 0.63 | 1.59 | – | – | CC1OCCCn2c(c3c4cc(ccc42)-c2csc(n2)CC(NC(=O)C2CC2C(F)F)C(=O)N2CCCC(N2)C(=O)OCC(C)(C)C3)-c2cc(N3CCN(C)C(C)C3)cnc21 [Example 138, (1S,2S)-2-(difluoromethyl)-N-((1^5S,6^3S,4S,Z)-1^2-((R)-3,4-dimethylpiperazin-1-yl)-1^5,10,10-trimethyl-5,7-dioxo-1^8,1^9,6^1,6^2,6^3,6^4,6^5,6^6-octahydro-1^5H,1^7H-8-oxa-1(13,15)-pyrido[3',2':7,8][1,5]oxazonino[5,6-a]indola-2(4,2)-thiazola-6(1,3)-pyridazinacycloundecaphane-4-yl)cyclopropane-1-carboxamide]
